Where two headings read alike, the source gives them in different places. No end group written: not given here.
Assays:
[1] = tested on: guinea-pig isolated bronchi
Text: (§1) The right and left main bronchi and their first order branches of specific pathogenfree (SPF) Balb/c mice (15–20 g; either sex), Hartley tricolour guinea-pigs (300–400 g; male) and Sprague-Dawley rats (200–350 g; either sex), all killed by either cervical dislocation or overdosed (i.p.) with sodium pentobarbitone, were cleared of surrounding connective tissue, nerves and blood vessels under a dissecting microscope and placed in cold, carbogenated (95% v/v O2,5% v/v CO2) Krebs solution (Kemp and Cocks, 1997). Human airway preparations (0.5–1 mm in external diameter) were dissected from lungs of cancer patients undergoing thoracotomy at The Royal Melbourne Hospital, Melbourne, Australia. The epithelium was removed from some bronchi either by mechanical abrasion of the luminal surface (guinea-pig) or by brief, gentle intraliminal flushing of the airways with Krebs containing 0.1% v/v Triton-X100 (mouse and rat). In each case, removal of the epithelium was verified histologically in 8 μm formalin-fixed, paraffin sections stained with haemotoxylin and eosin. Ring segments (approximately 2 mm long) of bronchi and bronchioles were mounted in Krebs (37° C.) on stainless steel wires (40 μm) in dual channel (5 ml) Mulvany-Halpern myographs (JP Trading, Aarhus, Denmark) to record changes in isometric force (Kemp and Cocks, 1997). After equilibration at a passive force between 0.2 g and 0.3 g, tissues were contracted to their maximum levels of active force (Fm.),) with acetylcholine (30 μM), thoroughly washed with Krebs and allowed to return to baseline. Various drugs or their vehicles were then added and 30 min later all tissues were contracted to approximately 40% Fmax with titrated concentrations of carbachol (10–500 nM). The L-type voltage-operated Ca^2+ channel inhibitor, nifedipine (0.3 μM) was added to all mouse and rat tissues after obtaining Fmax to control characteristic phasic contractile activity with carbachol.
(§2) Mouse bronchus preparations were carefully mounted horizontally on fine (40 μm) stainless steel wires attached to the jaws of a Mulvany-Halpem myograph. After 60 min at 37° C., all rings were stretched to 0.5 g passive force, which had been determined in preliminary experiments to be optimal, and allowed to recover from that stretch for a further 30 min. Maximum contraction (Fmax) in each tissue was then determined with exogenously applied acetylcholine (ACh; 30 μM) followed by washout. A further 30 min equilibration time was allowed before the tissues were actively contracted to between 20% and 60% of their individual Fm.” values with titrated concentrations of carbachol (10–100 nM).

mouse bronchial rings = conditions: for relaxation in presence of NO blockers: L—NOARG (100 μM) and HbO (20 μM); for response of epithelium-intact bronchi: contracted to approximately 40% Fmax with carbachol; for relaxation after removal of the epithelium: epithelium removed with 0.1% v/v Triton X-100; for response in presence of cyclooxygenase inhibitors: indomethacin (3 μM) or aspirin (100 μM); for maximum relaxation (Rmax) / sensitivity (pEC50): main bronchi with epithelium; for maximum relaxation (Rmax): % of initial force to carbachol; for sensitivity (pEC50): contracted with carbachol; for response after desensitisation to thrombin: post-thrombin; for response after desensitisation to trypsin: post-trypsin
Text: as §1
If no response occurred the tissues were then exposed to cumulative concentrations of either SLIGRL—NH2 (SEQ ID NO:2) or SFLLRN—NH2 (SEQ ID NO:1) (0.1–30 μM).
(§3) Results are presented as mean±s.e mean and pEC50 (sensitivity) values were calculated by fitting concentration-response curves to a four parameter logistic function (Kemp and Cocks, 1997) using Graphpad Prism (version 2.0). Statistical comparison of mean pEC50 and maximum response (Rmax) values were compared by two-tailed unpaired Student's t-tests or one way analysis of variance (ANOVA) with Tukey-Kramer's t-tests for multiple comparisons. P<0.05 was accepted as significant. Unless specified, all averaged data are from n>5 experiments.
as §2, with “nM). […] In some cases, tissues were treated with a range of drugs prior to contraction to approximately […] Fmax. These included the cyclooxygenase inhibitors indomethacin and aspirin, the nitric oxide (NO) synthase inhibitor N′-nitro-L-(L-NOARG), the NO scavenger oxyhaemoglobin (Hb0), and the L-voltage-operated Cat' channel inhibitor nifedipine.” for “nM).”
After an initial passive stretch to 0.5 g (Ti) and recovery, each ring was contracted with acetylcholine (Ach; 30 μM). The contraction was taken as the tissue maximum and referred to as Fmax.

[2] = tested on: human coronary artery rings
rat isolated bronchi = tested on: rat isolated bronchi
Text: as §1
as §3, with “All cumulative responses (relaxations and contractions) were normalised as percentages of the initial level of active force to carbachol. Results” for “Results”

[3] = tested on: first generation branches of the mouse main bronchi; conditions: mouse bronchioles
Text: as §1
as §3, with “All cumulative responses (relaxations and contractions) were normalised as percentages of the initial level of active force to carbachol. Results” for “Results”

[4] = tested on: isolated human bronchioles
Method: Small (500 μm) bronchioles were carefully dissected from discarded sections of human left lung which had been excised at surgery from two male lung cancer patients (Royal Melbourne Hospital, Melbourne, Australia).
Dissection of these bronchioles required a fine-dissecting microscope and an assistant to continually flood the preparation with cold oxygenated Krebs solution to remove air bubbles and keep the tissue viable. Bronchioles approximately 2 mm in length were then mounted on […] diameter stainless wires in a Krebs solution-filled myograph chamber, as described for the mouse bronchus preparation above.

rat gastric fundus = conditions: mucosa intact, contracted with acetylcholine
Text: Longitudinal strips of gastric fundus from male Sprague-Dawley rats were suspended under 1 g passive isometric tension in Krebs solution.

[5] = desensitized to both thrombin and trypsin

SLIGRL-NH2 [SLIGRL—NH2]
response of epithelium-intact rings [1]: Concentration dependent relaxations to PAR2-AP were observed in six out of thirteen bronchial rings
response of epithelium-denuded rings ([1]; epithelium-denuded): either caused a small contraction or no response
Rmax ([1]; guinea-pig bronchi): 31±5%
pEC50 ([1]; guinea-pig bronchi): 5.4±0.2
relaxation in presence of NO blockers (mouse bronchial rings): unaffected
response of epithelium-intact bronchi (mouse bronchial rings): powerful concentration dependent relaxations
relaxation after removal of the epithelium (mouse bronchial rings): abolished
response in presence of cyclooxygenase inhibitors (mouse bronchial rings): abolished
maximum relaxation (Rmax) (mouse bronchial rings): 94±3%
sensitivity (pEC50) (mouse bronchial rings): 5.6±0.1 −log M
response after desensitisation to thrombin (mouse bronchial rings): unaffected
response after desensitisation to trypsin (mouse bronchial rings): abolished
response after desensitisation to trypsin (mouse bronchial rings; listed as PAR2-AP): virtually abolished
relaxation ([2]; endothelium-intact): no relaxation
Rmax (rat isolated bronchi; rat bronchi): 56±5%
pEC50 (rat isolated bronchi; rat bronchi): 5.5±0.1
maximum relaxation (Rmax) [3]: 58±4%
sensitivity (pEC50) [3]: 5.1±0.05
response of human bronchioles [4]: appeared to cause some contraction, but this was most likely baseline drift
response of rat gastric fundus (rat gastric fundus): relaxation

SFLLRN [SFLLRN—NH2]
response of epithelium-intact rings [1]: only caused concentration-dependent contractions
relaxation in presence of NO blockers (mouse bronchial rings): unaffected
response of epithelium-intact bronchi (mouse bronchial rings): powerful concentration dependent relaxations
relaxation after removal of the epithelium (mouse bronchial rings): abolished
response in presence of cyclooxygenase inhibitors (mouse bronchial rings): converted to concentration-dependent contractions
maximum relaxation (Rmax) (mouse bronchial rings): 76±11%
sensitivity (pEC50) (mouse bronchial rings): 5.6±0.1 −log M
response after desensitisation to thrombin (mouse bronchial rings): abolished
response after desensitisation to trypsin (mouse bronchial rings): abolished
Rmax after desensitisation [2, 5]: 92.0±5.0%
pEC50 after desensitisation [2, 5]: 6.4±0.2
relaxation after removal of the endothelium ([2]; endothelium-denuded): abolished
maximum (Rmax % contraction reversal) ([2]; endothelium-intact, control): 95.2±1.3%
pEC50 ([2]; endothelium-intact, control): 6.9±0.1 −log M
pEC50, untreated control of desensitisation experiment ([2]; untreated, n=8): 7.0±0.1
response of rat bronchial rings (rat isolated bronchi): only caused a contraction
maximum relaxation (Rmax) [3]: 58±10%
sensitivity (pEC50) [3]: 5.5±0.02
response of human bronchioles [4]: relaxed the bronchioles
maximum relaxation relative to isoprenaline plus IBMX ([4]; contracted to approximately 30% Fmax with carbachol): approximately 30%
response of rat gastric fundus (rat gastric fundus): relaxation
